Tests used:
Alopecurus aequalis = assay: Field efficacy experiment, plant control effect; assay type: in vivo; conditions: 10% aqueous solution, 120 mL/mu, 7 days after treatment
Procedure: (§1) The combination of preparation processing and field efficacy test was adopted below.
(§2) The above-mentioned formulations were prepared with the crystals of the embodiments of the present disclosure and the crystal form A in the patent CN111065270A respectively for field efficacy experiments. It was detected that the physical and chemical properties of the aqueous solution products prepared by each crystal form were stable and met the needs of production and use, and at the same time, field experiments were carried out on different weeds. The dosage was 120 mL/mu.
(§3) Referring to the “Pesticide-Guidelines for the field efficacy trials”, 5 sites were investigated in each plot, each site was 1 square meter, and the types of weeds, the total number of plants, the symptoms of poisoning, the number of dead plants, etc. were recorded for each treatment 7 days after the treatment, and then the results of the plant control effect were counted, and the weed mortality was calculated and counted specifically.

Bluegrass = assay: Field efficacy experiment, plant control effect; assay type: in vivo; conditions: 10% aqueous solution, 120 mL/mu, 7 days after treatment
Procedure: as §1, §2, §3

Euphorbia helioscopia = assay: Field efficacy experiment, plant control effect; assay type: in vivo; conditions: 10% aqueous solution, 120 mL/mu, 7 days after treatment
Procedure: as §1, §2, §3

Stability test (storage) = assay type: physicochemical; conditions: for Appearance (change after storage) / Crystal form (change after storage) / Weight change (%): humidity 65%; for stability (in words): compared with the crystal forms in CN111065270A
Procedure: Experimental method: The crystal forms A, B, and C were stored at a temperature of 60° C. for 7 days, the crystal form changes were re-measured, and the specific results were shown in Table 9.
The crystals obtained in Embodiments 4-9 were stored for 48 days at 25° C. and 60° C., respectively, the crystal form changes were re-measured, and the specific results were shown in Table 10.

[1] = DSC heat absorption and decomposition temperatures (high temperature stability); assay type: physicochemical; conditions: for Peak: DSC endothermic peak temperature; for Start of heat absorption: DSC
Procedure: (§4) In the present application, the test instruments and conditions used in the experiment are as follows: • 1. The crystal form of the product was analyzed by X-ray powder diffractometer (XRD, Rigaku D/Max-2500 type, Cu Kα radiation, λKα=0.15406 nm), the emission voltage and current were 40 kV and 100 mA, respectively, and the scanning range was 2-40°, the scan step size was 0.02°, and the scan rate was 8°/min. • 2. Differential Scanning calorimetry (DSC) and Thermogravimetric Analysis (TGA): DSC and TGA analyses were performed using a TGA/DSC Model 1 instrument from Mettler Toledo. The DSC measurement method was as follows: take 5-10 mg of the sample into an aluminum crucible, put it into the instrument, set the nitrogen flow rate to 50 ml/min, 200 ml/min, and increase the temperature from 30° C. to 200° C. at a rate of 10° C./min, and analysis was performed using STAR software from Mettler Toledo. The TGA measurement method was as follows: take 5-10 mg of the sample into an aluminum crucible, put it into the instrument, set the nitrogen flow rate to 20 ml/min, 50 ml/min, and increase the temperature from 30° C. to 200° C. at a rate of 10° C./min, and analysis was performed using STAR software from Mettler Toledo.
For the crystal form A, crystal form B, crystal form D and crystal form E of L-glufosinate ammonium, the data comparison of its high temperature stability were shown in Table 6.

Hygroscopicity test = assay type: physicochemical; conditions: 48 h; for Weight change (%): 100 g solid
Procedure: Experimental scheme: 100 g of solids were placed under different humidity for 48 h, and re-measured whether there was a significant change in their quality, and visually inspected whether there was a significant change in their appearance, so as to determine whether the crystal form had hygroscopicity, and the specific results of the crystal forms A, B, and C were shown in Table 7, and the specific results of the crystal forms D and E were shown in Table 8.

Rumex = assay: Field efficacy experiment, plant control effect; assay type: in vivo; conditions: 10% aqueous solution, 120 mL/mu, 7 days after treatment
Procedure: as §1, §2, §3

[2] = test system: weeds such as Rumex, Alopecurus aequalis, Euphorbia helioscopia, and bluegrass; assay: Field efficacy experiment, summary statements over all weeds; assay type: in vivo; conditions: difference in plant control effect
Procedure: as §1, §2, §3

[3] = Thermogravimetric analysis (TGA); assay type: physicochemical
Procedure: as §4

[4] = listed as Crystal form A of Embodiment 1 of the present disclosure
[5] = listed as Crystal form A of L-glufosinate ammonium
[6] = listed as Crystal form B of Embodiment 2 of the present disclosure
[7] = listed as Crystal form B of L-glufosinate ammonium
[8] = listed as Crystal form D of Embodiment 4 of the present disclosure
[9] = listed as Crystal form D of L-Glufosinate Ammonium
[10] = listed as Crystal form D of L-glufosinate ammonium
[11] = listed as Crystal form E of Embodiment 5 of the present disclosure
[12] = listed as Crystal form E of L-Glufosinate Ammonium
[13] = listed as Crystal form E of L-glufosinate ammonium

CP(=O)(O)CC[C@H](N)C(=O)O.N [Crystal form A, L-glufosinate ammonium]
Plant control effect (%) Alopecurus aequalis (Alopecurus aequalis; [4]): 80%
Plant control effect (%) Bluegrass (Bluegrass; [4]): 80%
Plant control effect (%) Euphorbia helioscopia (Euphorbia helioscopia; [4]): 80%
Appearance (change after storage) (Stability test (storage); 60° C., 7 days): Unchanged
Crystal form (change after storage) (Stability test (storage); 60° C., 7 days): Unchanged
stability (in words) (Stability test (storage)): excellent stability
Peak [1, 5]: 129° ° C.
Start of heat absorption [1, 5]: 110° ° C.
high temperature stability (in words) ([1]; versus the ammonium salt crystal forms in the existing patent): better high temperature stability
Weight change (%) (Hygroscopicity test; 20° C., humidity 65%, listed as A): +0.02%
Weight change (%) (Hygroscopicity test; 20° C., humidity 80%, listed as A): +1.45%

CP(=O)(O)CC[C@H](N)C(=O)O.N [Crystal form B, L-glufosinate ammonium]
Plant control effect (%) Alopecurus aequalis (Alopecurus aequalis; [6]): 85%
Plant control effect (%) Bluegrass (Bluegrass; [6]): 80%
Plant control effect (%) Rumex (Rumex): 100%
Plant control effect (%) Euphorbia helioscopia (Euphorbia helioscopia; [6]): 80%
Peak [1, 7]: 134° ° C.
Start of heat absorption [1, 7]: 125° ° C.
Weight change (%) (Hygroscopicity test; 20° C., humidity 65%, listed as B): +0.03%
Weight change (%) (Hygroscopicity test; 20° C., humidity 80%, listed as B): +1.55%

CP(=O)(O)CC[C@H](N)C(=O)O [Crystal form C, L-glufosinate]
Appearance (change after storage) (Stability test (storage); 60° C., 7 days): Unchanged
Crystal form (change after storage) (Stability test (storage); 60° C., 7 days): Unchanged
stability (in words) (Stability test (storage)): excellent stability
Weight change (%) (Hygroscopicity test; 20° C., humidity 65%): +0.02%
Weight change (%) (Hygroscopicity test; 20° C., humidity 80%): +1.54%

CP(=O)(O)CC[C@H](N)C(=O)O.N [Crystal form D, L-glufosinate ammonium]
efficacy higher than other crystal forms of the ammonium salt [2]: about 5%
Plant control effect (%) Alopecurus aequalis (Alopecurus aequalis; [8]): 86%
Plant control effect (%) Bluegrass (Bluegrass; [8]): 85%
Plant control effect (%) Euphorbia helioscopia (Euphorbia helioscopia; [8]): 85%
Weight change (%) (Stability test (storage); 25° C., 48 days, listed as Embodiment 4): +0.03%
Weight change (%) (Stability test (storage); 25° C., 48 days, listed as Embodiment 6): +0.03%
Weight change (%) (Stability test (storage); 25° C., 48 days, listed as Embodiment 7): +0.01%
Appearance (change after storage) (Stability test (storage); 60° C., 48 days): Unchanged
Crystal form (change after storage) (Stability test (storage); 60° C., 48 days): Unchanged
Weight change (%) (Stability test (storage); 60° C., 48 days, listed as Embodiment 4): +0.02%
Weight change (%) (Stability test (storage); 60° C., 48 days, listed as Embodiment 6): +0.02%
Weight change (%) (Stability test (storage); 60° C., 48 days, listed as Embodiment 7): +0.01%
storage stability (in words) (Stability test (storage); at 25° C. and 60° C.): excellent storage stability
temperature below which the weight of the crystal was basically unchanged [3, 9]: 139.5 °C
temperature from which weight decreased rapidly (decomposition) [3, 9]: 206.5 °C
temperature from which weight started to decrease slowly (release of ammonia gas) [3, 9]: 139.5 °C
Peak [1, 10]: 179.83° ° C.
Start of heat absorption [1, 10]: 161.84° ° C.
Appearance change (Hygroscopicity test; 25° C., humidity 65%): Unchanged
Weight change (%) (Hygroscopicity test; 25° C., humidity 65%, listed as Embodiment 4): +0.03%
Weight change (%) (Hygroscopicity test; 25° C., humidity 65%, listed as Embodiment 6): +0.03%
Weight change (%) (Hygroscopicity test; 25° C., humidity 65%, listed as Embodiment 7): +0.01%
Appearance change (Hygroscopicity test; 25° C., humidity 80%): Unchanged
Weight change (%) (Hygroscopicity test; 25° C., humidity 80%, listed as Embodiment 4): +1.12%
Weight change (%) (Hygroscopicity test; 25° C., humidity 80%, listed as Embodiment 6): +1.17%
Weight change (%) (Hygroscopicity test; 25° C., humidity 80%, listed as Embodiment 7): +1.12%

CP(=O)(O)CC[C@H](N)C(=O)O.N [Crystal form E, L-glufosinate ammonium]
Plant control effect (%) Alopecurus aequalis (Alopecurus aequalis; [11]): 85%
Plant control effect (%) Bluegrass (Bluegrass; [11]): 85%
Plant control effect (%) Euphorbia helioscopia (Euphorbia helioscopia; [11]): 90%
Appearance (change after storage) (Stability test (storage); 25° C., 48 days): Unchanged
Crystal form (change after storage) (Stability test (storage); 25° C., 48 days): Unchanged
Weight change (%) (Stability test (storage); 25° C., 48 days, listed as Embodiment 5): +0.02%
Weight change (%) (Stability test (storage); 25° C., 48 days, listed as Embodiment 8): +0.02%
Weight change (%) (Stability test (storage); 25° C., 48 days, listed as Embodiment 9): +0.02%
Weight change (%) (Stability test (storage); 60° C., 48 days, listed as Embodiment 5): +0.01%
Weight change (%) (Stability test (storage); 60° C., 48 days, listed as Embodiment 8): +0.02%
Weight change (%) (Stability test (storage); 60° C., 48 days, listed as Embodiment 9): +0.02%
temperature below which the weight of the crystal was basically unchanged [3, 12]: 95.5 °C
temperature from which weight decreased rapidly (decomposition) [3, 12]: 226.5 °C
temperature from which weight started to decrease slowly (release of ammonia gas) [3, 12]: 147 °C
slow weight decrease ([3]; starting at 95.5° C.): 1.2%
Peak [1, 13]: 185.833° ° C.
Start of heat absorption [1, 13]: 147° ° C.
Weight change (%) (Hygroscopicity test; 25° C., humidity 65%, listed as Embodiment 5): +0.02%
Weight change (%) (Hygroscopicity test; 25° C., humidity 65%, listed as Embodiment 8): +0.02%
Weight change (%) (Hygroscopicity test; 25° C., humidity 65%, listed as Embodiment 9): +0.02%
Weight change (%) (Hygroscopicity test; 25° C., humidity 80%, listed as Embodiment 5): +1.23%
Weight change (%) (Hygroscopicity test; 25° C., humidity 80%, listed as Embodiment 8): +1.15%
Weight change (%) (Hygroscopicity test; 25° C., humidity 80%, listed as Embodiment 9): +1.18%

CP(=O)(O)CCC(N)C(=O)O.N (stereo not drawn) [Crystal form in CN113831364A, reference compound]
Start of heat absorption [1]: 104° ° C.
Peak [1]: 115° ° C.

From patent US12630571B2, “Crystal form of L-glufosinate and preparation method and use thereof” (JIANGSU SEVENCONTINENT GREEN TECHNOLOGY RESEARCH INSTITUTE …, priority 2022, dated 2026)
